In ChEMBL document CHEMBL5338820, “Discovery and Design of Novel Cyclic Peptides as Specific Inhibitors Targeting CCN2 and Disrupting CCN2/EGFR Interaction for Kidney Fibrosis Treatment” (J Med Chem, 2023) one finds inhibition data, which are given here for 21 molecules.

Peptide text beside a SMILES is read from it.

For assay [1], the target named is T1, CCN2-EGFR (Homo sapiens) (UniProt P00533+P29279). Nature of the assay: Inhibition of His-tagged full length human CCN2 CT domain/human Fc-tagged EGFR protein-protein interaction using TMB as chromogenic substrate at 100 uM incubated for 140 mins by microplate reader assay relative to control.
T1 sequence (P00533 whole entry, looked up, the tested form may be a part): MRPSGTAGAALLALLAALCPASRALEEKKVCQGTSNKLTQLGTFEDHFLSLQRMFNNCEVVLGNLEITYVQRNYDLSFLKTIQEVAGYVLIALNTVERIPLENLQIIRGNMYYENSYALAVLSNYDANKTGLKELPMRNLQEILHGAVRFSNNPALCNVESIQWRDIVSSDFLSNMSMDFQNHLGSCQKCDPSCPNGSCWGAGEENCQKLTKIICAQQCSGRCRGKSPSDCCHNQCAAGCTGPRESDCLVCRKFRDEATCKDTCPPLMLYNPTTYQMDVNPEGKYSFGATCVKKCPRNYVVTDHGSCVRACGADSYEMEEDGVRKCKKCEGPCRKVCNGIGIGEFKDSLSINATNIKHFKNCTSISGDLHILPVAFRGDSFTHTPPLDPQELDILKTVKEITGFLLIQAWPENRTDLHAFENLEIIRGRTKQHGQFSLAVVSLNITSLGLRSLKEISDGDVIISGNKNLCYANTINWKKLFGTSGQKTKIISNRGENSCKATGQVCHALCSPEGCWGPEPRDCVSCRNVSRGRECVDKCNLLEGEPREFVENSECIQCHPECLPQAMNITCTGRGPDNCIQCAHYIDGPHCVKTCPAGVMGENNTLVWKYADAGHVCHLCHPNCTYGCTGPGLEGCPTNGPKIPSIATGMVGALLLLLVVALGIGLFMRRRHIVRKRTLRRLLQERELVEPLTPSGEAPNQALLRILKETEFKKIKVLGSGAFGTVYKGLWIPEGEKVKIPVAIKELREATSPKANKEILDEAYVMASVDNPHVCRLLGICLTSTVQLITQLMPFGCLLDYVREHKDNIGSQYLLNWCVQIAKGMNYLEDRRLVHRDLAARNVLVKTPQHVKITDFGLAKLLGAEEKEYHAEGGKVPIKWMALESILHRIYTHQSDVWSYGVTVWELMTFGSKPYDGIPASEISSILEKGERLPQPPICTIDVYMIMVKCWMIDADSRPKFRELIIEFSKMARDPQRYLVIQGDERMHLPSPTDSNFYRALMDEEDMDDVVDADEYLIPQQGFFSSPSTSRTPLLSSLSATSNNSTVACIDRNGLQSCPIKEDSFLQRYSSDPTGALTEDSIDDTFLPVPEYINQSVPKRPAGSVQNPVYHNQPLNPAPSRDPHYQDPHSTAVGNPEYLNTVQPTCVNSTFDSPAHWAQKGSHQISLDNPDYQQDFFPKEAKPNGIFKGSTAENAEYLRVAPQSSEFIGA
T1 sequence (P29279 whole entry, looked up, the tested form may be a part): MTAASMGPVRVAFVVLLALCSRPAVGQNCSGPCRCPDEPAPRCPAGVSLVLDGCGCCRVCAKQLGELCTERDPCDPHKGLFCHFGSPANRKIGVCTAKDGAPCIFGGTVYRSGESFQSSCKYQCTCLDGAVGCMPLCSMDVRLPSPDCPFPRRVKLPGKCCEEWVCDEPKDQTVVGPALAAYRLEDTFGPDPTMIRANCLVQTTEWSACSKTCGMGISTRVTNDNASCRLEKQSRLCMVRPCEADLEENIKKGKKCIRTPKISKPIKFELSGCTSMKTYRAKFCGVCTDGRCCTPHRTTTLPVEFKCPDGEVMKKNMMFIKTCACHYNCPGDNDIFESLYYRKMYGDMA
Assay [2] addresses T1, CCN2-EGFR (Homo sapiens). Nature of the assay: Inhibition of His-tagged full length human CCN2 FL domain/human Fc-tagged EGFR protein-protein interaction using TMB as chromogenic substrate at 100 uM incubated for 140 mins by microplate reader assay relative to control.

One may read the inhibition as how much of the control response was suppressed. High values mean a strong effect, low ones a weak effect. With `CC(C)C[C@H](NC(=O)[C@@H](N)CC(C)C)C(=O)N[C@@H](C)C(=O)N[C@@H](CC(=O)O)C(=O)N[C@@H](C)C(=O)N[C@H](C(=O)N[C@@H](Cc1c[nH]cn1)C(=O)N[C@@H](Cc1c[nH]cn1)C(=O)N[C@@H](CCCNC(=N)N)C(=O)N1CCC[C@H]1C(=O)N[C@@H](Cc1c[nH]c2ccccc12)C(=O)N[C@H](C(N)=O)[C@@H](C)O)[C@@H](C)O` (H-LLADATHHRPWT-NH2), the inhibition came to 70.7% in assay [1] and 59% in assay [2].

`CC(C)C[C@H](NC(=O)[C@@H](N)CC(C)C)C(=O)N[C@@H](C)C(=O)N[C@@H](CC(=O)O)C(=O)N[C@H](C(=O)N[C@H](C(=O)N[C@@H](Cc1c[nH]cn1)C(=O)N[C@@H](Cc1c[nH]cn1)C(=O)N[C@@H](CCCNC(=N)N)C(=O)N[C@@H](C)C(=O)N[C@@H](Cc1c[nH]c2ccccc12)C(=O)N[C@H](C(N)=O)[C@@H](C)O)[C@@H](C)O)[C@@H](C)O` (H-LLADTTHHRAWT-NH2): the inhibition amounted to 65.6% in assay [1] and 56.5% in assay [2].

Take `C[C@@H](O)[C@H](N)C(=O)N[C@@H](Cc1c[nH]cn1)C(=O)N[C@@H](Cc1c[nH]cn1)C(=O)N[C@@H](CCC(=O)O)C(=O)N1CCC[C@H]1C(=O)N[C@@H](Cc1c[nH]c2ccccc12)C(=O)N[C@H](C(N)=O)[C@@H](C)O` (H-THHEPWT-NH2): the inhibition in assay [1] was determined as 61.9%; in assay [2] it was 12.4%.

As to `C[C@@H](O)[C@H](N)C(=O)N[C@@H](Cc1c[nH]cn1)C(=O)N[C@@H](Cc1c[nH]cn1)C(=O)N[C@@H](CCCNC(=N)N)C(=O)N[C@@H](CCC(=O)O)C(=O)N[C@@H](Cc1c[nH]c2ccccc12)C(=O)N[C@H](C(N)=O)[C@@H](C)O` (H-THHREWT-NH2), the inhibition was found to be 11.1% in assay [1] and 19.6% in assay [2].

On to `CC(C)C[C@H](NC(=O)[C@@H](N)CC(C)C)C(=O)N[C@@H](C)C(=O)N[C@@H](C)C(=O)N[C@H](C(=O)N[C@H](C(=O)N[C@@H](Cc1c[nH]cn1)C(=O)N[C@@H](Cc1c[nH]cn1)C(=O)N[C@@H](CCCNC(=N)N)C(=O)N1CCC[C@H]1C(=O)N[C@@H](Cc1c[nH]c2ccccc12)C(=O)N[C@H](C(N)=O)[C@@H](C)O)[C@@H](C)O)[C@@H](C)O` (H-LLAATTHHRPWT-NH2), for which the inhibition in assay [1] turned out to be 76%; in assay [2], 61.4%.

On to `CC(C)C[C@H](N)C(=O)N[C@@H](C)C(=O)N[C@@H](C)C(=O)N[C@@H](CC(=O)O)C(=O)N[C@H](C(=O)N[C@H](C(=O)N[C@@H](Cc1c[nH]cn1)C(=O)N[C@@H](Cc1c[nH]cn1)C(=O)N[C@@H](CCCNC(=N)N)C(=O)N1CCC[C@H]1C(=O)N[C@@H](Cc1c[nH]c2ccccc12)C(=O)N[C@H](C(N)=O)[C@@H](C)O)[C@@H](C)O)[C@@H](C)O` (H-LAADTTHHRPWT-NH2), for which the values for the inhibition in assay [1] and in assay [2] were 69.5% and 62.8%, respectively.

With `CC(C)C[C@H](NC(=O)[C@@H](N)CC(C)C)C(=O)N[C@@H](C)C(=O)N[C@@H](CC(=O)O)C(=O)N[C@H](C(=O)N[C@H](C(=O)N[C@@H](C)C(=O)N[C@@H](Cc1c[nH]cn1)C(=O)N[C@@H](CCCNC(=N)N)C(=O)N1CCC[C@H]1C(=O)N[C@@H](Cc1c[nH]c2ccccc12)C(=O)N[C@H](C(N)=O)[C@@H](C)O)[C@@H](C)O)[C@@H](C)O` (H-LLADTTAHRPWT-NH2), the inhibition was 70.5% in assay [1] and 59.6% in assay [2].

On to `C[C@@H](O)[C@H](N)C(=O)N[C@@H](CCC(=O)O)C(=O)N[C@@H](Cc1c[nH]cn1)C(=O)N[C@@H](CCCNC(=N)N)C(=O)N1CCC[C@H]1C(=O)N[C@@H](Cc1c[nH]c2ccccc12)C(=O)N[C@H](C(N)=O)[C@@H](C)O` (H-TEHRPWT-NH2), for which the inhibition in assay [1] is 11.5%; in assay [2], 12.5%.

As to `C[C@@H](O)[C@H](N)C(=O)N[C@@H](Cc1c[nH]cn1)C(=O)N[C@@H](CCC(N)=O)C(=O)N[C@@H](CCCNC(=N)N)C(=O)N1CCC[C@H]1C(=O)N[C@@H](Cc1c[nH]c2ccccc12)C(=O)N[C@H](C(N)=O)[C@@H](C)O` (H-THQRPWT-NH2), the inhibition stood at 10.9% in assay [1] and 5.1% in assay [2].

Take `C[C@@H](O)[C@H](N)C(=O)N[C@@H](Cc1c[nH]cn1)C(=O)N[C@@H](Cc1c[nH]cn1)C(=O)N[C@@H](CCCNC(=N)N)C(=O)N[C@@H](CCC(N)=O)C(=O)N[C@@H](Cc1c[nH]c2ccccc12)C(=O)N[C@H](C(N)=O)[C@@H](C)O` (H-THHRQWT-NH2): the inhibition in assay [1] came out at 1.2%; in assay [2], 4.5%.

On to `CC(C)C[C@H](NC(=O)[C@@H](N)CC(C)C)C(=O)N[C@@H](C)C(=O)N[C@@H](CC(=O)O)C(=O)N[C@H](C(=O)N[C@H](C(=O)N[C@@H](Cc1c[nH]cn1)C(=O)N[C@@H](Cc1c[nH]cn1)C(=O)N[C@@H](CCCNC(=N)N)C(=O)N1CCC[C@H]1C(=O)N[C@@H](Cc1c[nH]c2ccccc12)C(=O)N[C@@H](C)C(N)=O)[C@@H](C)O)[C@@H](C)O` (H-LLADTTHHRPWA-NH2), for which the inhibition in assay [1] worked out at 14.2%; in assay [2] it was 13.5%.

On to `CC(C)C[C@H](NC(=O)[C@@H](N)CC(C)C)C(=O)N[C@@H](C)C(=O)N[C@@H](CC(=O)O)C(=O)N[C@H](C(=O)N[C@H](C(=O)N[C@@H](Cc1c[nH]cn1)C(=O)N[C@@H](Cc1c[nH]cn1)C(=O)N[C@@H](CCCNC(=N)N)C(=O)N1CCC[C@H]1C(=O)N[C@@H](C)C(=O)N[C@H](C(N)=O)[C@@H](C)O)[C@@H](C)O)[C@@H](C)O` (H-LLADTTHHRPAT-NH2), for which the inhibition in assay [1] was determined as 10.7%; in assay [2], 8.7%.

Take `C[C@@H](O)[C@@H]1NC(=O)[C@H](Cc2c[nH]c3ccccc23)NC(=O)[C@@H]2CCCN2C(=O)[C@H](CCCNC(=N)N)NC(=O)[C@H](CCCCN)NC(=O)[C@H](Cc2c[nH]cn2)NC(=O)[C@H]([C@@H](C)O)NC1=O` (cyclo(HKRPWTT)): the inhibition in assay [1] is 13.2%; in assay [2], 17.4%.

Turning to `CC(C)C[C@H](NC(=O)[C@H](CCCNC(=N)N)NC(=O)[C@H](Cc1c[nH]cn1)NC(=O)[C@H](Cc1c[nH]cn1)NC(=O)[C@@H](N)[C@@H](C)O)C(=O)N[C@@H](Cc1c[nH]c2ccccc12)C(=O)N[C@H](C(N)=O)[C@@H](C)O` (H-THHRLWT-NH2), the results for the inhibition in assay [1] and in assay [2] were 43.6% and 37.1%, respectively.

Turning to `CC(C)C[C@H](NC(=O)[C@@H](N)CC(C)C)C(=O)N[C@@H](C)C(=O)N[C@@H](CC(=O)O)C(=O)N[C@H](C(=O)N[C@H](C(=O)N[C@@H](Cc1c[nH]cn1)C(=O)N[C@@H](C)C(=O)N[C@@H](CCCNC(=N)N)C(=O)N1CCC[C@H]1C(=O)N[C@@H](Cc1c[nH]c2ccccc12)C(=O)N[C@H](C(N)=O)[C@@H](C)O)[C@@H](C)O)[C@@H](C)O` (H-LLADTTHARPWT-NH2), the inhibition was determined as 65.8% in assay [1] and 48.6% in assay [2].

Turning to `CC(C)C[C@H](NC(=O)[C@@H](N)CC(C)C)C(=O)N[C@@H](C)C(=O)N[C@@H](CC(=O)O)C(=O)N[C@H](C(=O)N[C@H](C(=O)N[C@@H](Cc1c[nH]cn1)C(=O)N[C@@H](Cc1c[nH]cn1)C(=O)N[C@@H](C)C(=O)N1CCC[C@H]1C(=O)N[C@@H](Cc1c[nH]c2ccccc12)C(=O)N[C@H](C(N)=O)[C@@H](C)O)[C@@H](C)O)[C@@H](C)O` (H-LLADTTHHAPWT-NH2), the inhibition in assay [1] stood at 72.5%; in assay [2], 57.8%.

Take `C[C@@H](O)[C@H](N)C(=O)N[C@@H](Cc1c[nH]cn1)C(=O)N[C@@H](Cc1c[nH]cn1)C(=O)N[C@@H](CCC(N)=O)C(=O)N1CCC[C@H]1C(=O)N[C@@H](Cc1c[nH]c2ccccc12)C(=O)N[C@H](C(N)=O)[C@@H](C)O` (H-THHQPWT-NH2): the inhibition worked out at 8.1% in assay [1] and 2.1% in assay [2].

With `C[C@@H](O)[C@H](N)C(=O)N[C@@H](CCC(N)=O)C(=O)N[C@@H](Cc1c[nH]cn1)C(=O)N[C@@H](CCCNC(=N)N)C(=O)N1CCC[C@H]1C(=O)N[C@@H](Cc1c[nH]c2ccccc12)C(=O)N[C@H](C(N)=O)[C@@H](C)O` (H-TQHRPWT-NH2), the figures for the inhibition in assay [1] and in assay [2] were 11.8% and 6.8%, respectively.

Regarding `C[C@@H](O)[C@H](N)C(=O)N[C@@H](Cc1c[nH]cn1)C(=O)N[C@@H](CCC(=O)O)C(=O)N[C@@H](CCCNC(=N)N)C(=O)N1CCC[C@H]1C(=O)N[C@@H](Cc1c[nH]c2ccccc12)C(=O)N[C@H](C(N)=O)[C@@H](C)O` (H-THERPWT-NH2), the results for the inhibition in assay [1] and in assay [2] were 12.1% and 15.5%, respectively.

As to `CC(C)C[C@H](NC(=O)[C@@H](N)CC(C)C)C(=O)N[C@@H](C)C(=O)N[C@@H](CC(=O)O)C(=O)N[C@H](C(=O)N[C@@H](C)C(=O)N[C@@H](Cc1c[nH]cn1)C(=O)N[C@@H](Cc1c[nH]cn1)C(=O)N[C@@H](CCCNC(=N)N)C(=O)N1CCC[C@H]1C(=O)N[C@@H](Cc1c[nH]c2ccccc12)C(=O)N[C@H](C(N)=O)[C@@H](C)O)[C@@H](C)O` (H-LLADTAHHRPWT-NH2), the values for the inhibition in assay [1] and in assay [2] were 44.1% and 36.5%, respectively.

As for `CC(C)C[C@H](NC(=O)[C@H](C)N)C(=O)N[C@@H](C)C(=O)N[C@@H](CC(=O)O)C(=O)N[C@H](C(=O)N[C@H](C(=O)N[C@@H](Cc1c[nH]cn1)C(=O)N[C@@H](Cc1c[nH]cn1)C(=O)N[C@@H](CCCNC(=N)N)C(=O)N1CCC[C@H]1C(=O)N[C@@H](Cc1c[nH]c2ccccc12)C(=O)N[C@H](C(N)=O)[C@@H](C)O)[C@@H](C)O)[C@@H](C)O` (H-ALADTTHHRPWT-NH2), the inhibition in assay [1] was determined as 70.8%; in assay [2], 58.7%.
